Experimental data reported in patent US5942631A, “Inhibitors of cholesterol esterase” (University Of New Mexico, priority 1998, dated 1999).

Biological target: T1, cholesterol esterase (CE) (Homo sapiens, UniProt P19835)
T1 sequence (P19835 21-753): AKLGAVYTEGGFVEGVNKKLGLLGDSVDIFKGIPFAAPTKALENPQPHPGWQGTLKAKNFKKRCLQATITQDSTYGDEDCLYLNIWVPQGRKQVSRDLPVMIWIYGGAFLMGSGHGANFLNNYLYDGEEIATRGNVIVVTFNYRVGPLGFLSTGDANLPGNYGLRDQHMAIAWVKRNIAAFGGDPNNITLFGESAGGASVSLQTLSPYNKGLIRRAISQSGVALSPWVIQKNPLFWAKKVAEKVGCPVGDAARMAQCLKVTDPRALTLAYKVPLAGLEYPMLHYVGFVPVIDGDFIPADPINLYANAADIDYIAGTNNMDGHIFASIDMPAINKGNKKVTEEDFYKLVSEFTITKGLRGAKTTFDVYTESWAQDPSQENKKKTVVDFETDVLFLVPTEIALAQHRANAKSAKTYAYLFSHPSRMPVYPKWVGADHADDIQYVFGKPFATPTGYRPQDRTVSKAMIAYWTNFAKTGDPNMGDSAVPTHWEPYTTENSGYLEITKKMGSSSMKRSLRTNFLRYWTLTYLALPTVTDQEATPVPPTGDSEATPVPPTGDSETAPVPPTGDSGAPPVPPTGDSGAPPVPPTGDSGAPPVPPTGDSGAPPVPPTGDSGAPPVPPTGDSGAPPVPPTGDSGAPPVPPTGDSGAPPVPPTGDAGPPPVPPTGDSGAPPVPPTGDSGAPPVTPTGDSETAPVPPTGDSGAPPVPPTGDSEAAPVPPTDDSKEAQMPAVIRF
Test: Kinetic inhibition studies of cholesterol esterase (CE), substrate p-nitrophenylbutyrate, Dixon plots
Format: biochemical
Details: for inhibition of CE: kinetic inhibition studies, result in words

Row | SMILES | mode of inhibition of CE (1/V v [I] plots intersect above the x-axis, FIG. 6) | inhibition of CE | Ki (printed as "<<30", inferred because calculated Ki equals [E]/2, read-out: actual Ki for CE (suggested)) [nM]
1 | O=c1oc(Cl)ccc1CCC1CCCCC1 [Example 3, 3-(2-cyclohexylethyl)-6-chloropyronle] | competitive inhibition | potent inhibitors of CE | < 30
2 | O=c1oc(Cl)ccc1CCCC1CCCCC1 [Example 4] |  | potent inhibitors of CE | 
3 | O=c1oc(Cl)ccc1CC1CCCCC1 [Example 2] |  | potent inhibitors of CE | 
